Test results: patent US7368606B2, “Amorphous cinacalcet hydrochloride and preparation thereof” (Teva Pharmaceutical Industries Ltd., priority 2005, dated 2008)

What was measured:
[1] = Stability of amorphous cinacalcet HCl on storage at ambient temperature (PXRD); type: physicochemical; conditions: stored at ambient temperature in a closed bottle for 2 months, hydrochloride
Protocol: Powder X-Ray powder diffraction data were obtained using a […] powder X-Ray diffractometer model X'TRA equipped with a solid state detector and a variable gonimeter. Copper radiation of 1.5418 Å was used. A round standard aluminum sample holder with round zero background, and cavity of 25(diameter)*0.5(dept) mm. Scanning parameters were in the range of 2-40°2θ and a continuous scan rate of 3°/min.

[2] = Water content and solid form of amorphous cinacalcet HCl after exposure to humidity (KF titration, PXRD); type: physicochemical; conditions: 100 percent relative humidity; for Solid form by PXRD after exposure to humidity (physical stability): hydrochloride
Protocol: Powder X-Ray powder diffraction data were obtained using a SCINTAG powder X-Ray diffractometer model X'TRA equipped with a solid state detector and a variable gonimeter. Copper radiation of 1.5418 Å was used. A round standard aluminum sample holder with round zero background, and cavity of 25(diameter)*0.5(dept) mm. Scanning parameters were in the range of 2-40°2θ and a continuous scan rate of 3°/min.
100 mg amorphous cinacalcet HCl was spread as a thin layer, and exposed to 100 percent relative humidity for 8 days. The sample was than tested by PXRD and by Karl Fischer (“KF”) titration. Amorphous cinacalcet HCl was obtained with water content of 1.4 percent.

Solid form by PXRD after storage (physical stability) [1]: amorphous content | Solid form by PXRD after storage (physical stability) ([1]; listed as Amorphous cinacalcet): stable under prolonged storage | Water content by Karl Fischer titration after exposure to humidity ([2]; 100 mg spread as a thin layer, 8 days): 1.4% | Solid form by PXRD after exposure to humidity (physical stability) ([2]; 8 days, listed as Amorphous cinacalcet): stable at high humidity levels | Solid form by PXRD after exposure to humidity (physical stability) ([2]; 8 days, listed as amorphous cinacalcet HCl): Amorphous | Hygroscopicity ([2]; as shown in Example 2): non-hygroscopic
Structure (SMILES): C[C@@H](NCCCc1cccc(C(F)(F)F)c1)c1cccc2ccccc12.Cl [Amorphous Cinacalcet HCl, Cinacalcet hydrochloride]
